This is an account of results in paper PMC7606641 (Biochemical pharmacology, 2020).

Marks after values point to notes of the source that are not given here.

On the set-up of data set [1]: species or system CD-1 mice. Conditions: mouse, in vivo, iv.
Details of data set [2]: species or system CD-1 mice. Conditions: mouse, in vivo, iv. This is another data set of the same source.
On the set-up of data set [3]: species or system CD-1 mice. Conditions: mouse, in vivo, iv. This is another data set of the same source.
On the set-up of data set [4]: species or system CD-1 mice. As to conditions: mouse, in vivo; for Blood to Brain Influx Ki: iv.
The nature of data set [5]: Saturability of brain uptake. On the set-up: species or system CD-1 mice. Conditions: mouse, in vivo, iv.
The format of data set [6] is physicochemical. Conditions: pH 7.5.
Details of data set [7]: species or system CD-1 mice. As to conditions: mouse, in vivo, iv. The source holds these as a separate data set.
The conditions of data set [8]: in vivo; cited from earlier work.

Consider “HAEGTFTSDVSSYLEGQAAK^aEFIAWLVRGRG-OH [Liraglutide]”, for which the “Half-Time Serum Clearance t1/2” value in data set [1] was 167.22 min. In data set [2], the “125I-IRA remaining intact, Serum, 10 min” value stood at 101.2 ± 0.062%; the “125I-IRA remaining intact, Serum, 60 min” value is given as 100.18 ± 0.244^a %; the “125I-IRA remaining intact, Whole Brain, 10 min” value came to 100.1 ± 4.206%; the “Degradation (loss of precipitable 125I-IRA) in serum from 10 to 60 min” value is on record as “less than 2%”. Moreover, the “Degradation (loss of precipitable 125I-IRA) in whole brain from 10 to 60 min” value in data set [2] was “less than 12%”. Besides, in data set [3], the “Capillary Depletion: %Parenchyma (percent of IRA reaching the brain found in parenchyma vs capillaries)” value came out at 28.7% and the “Percent of IRA reaching the brain trapped in the capillaries” value is 71.3%. Besides, in data set [4], the “Initial Volume of Distribution in Brain Vi” value (“Initial Volume” for short) is 2.434 ± 0.5977 µL/g and the “Blood to Brain Influx Ki” value is recorded as “ns”.
Consider “HXEGTFTSDVSSYLEGQAAK^bEFIAWLVRGRG-OH [Semaglutide]”, for which, in data set [5], the “Serum radioactivity, Without Unlabeled IRA” value is reported as 692.1 ± 55.27 cpm/μL and the “Whole Brain brain/serum ratio, Without Unlabeled IRA” value is 9.637 ± 0.308 µL/g. Also, the “Half-Time Serum Clearance t1/2” value in data set [1] amounted to 149.31 min. Also, in data set [2], the “125I-IRA remaining intact, Serum, 10 min” value was 100.0 ± 0.031%; the “125I-IRA remaining intact, Serum, 60 min” value is given as 98.91 ± 0.029^a %; the “125I-IRA remaining intact, Whole Brain, 10 min” value was 95.55 ± 1.139%; the “Degradation (loss of precipitable 125I-IRA) in serum from 10 to 60 min” value was “less than 2%”. Besides, the “Degradation (loss of precipitable 125I-IRA) in whole brain from 10 to 60 min” value in data set [2] was “less than 12%”. In data set [3], the “Capillary Depletion: Capillary (capillary/serum ratio)” value worked out at 0.434 ± 0.056 µL/g and the “Capillary Depletion: Parenchyma (parenchyma/serum ratio)” value is -0.850 ± 0.533 µL/g. Further, in data set [4], the “Initial Volume” value is -0.340 ± 0.3285 µL/g and the “Blood to Brain Influx Ki” value is “ns”. For the same substance, in data set [6], the “Lipid Solubility Partition Coefficient” value turned out to be 0.0353 ± 0.0016 and the “Log Partition Coefficient (Log P)” value is given as −1.452 ± 0.0199.
With “YXEGTFTSDYSIYLDKQAAXEFVC ^*WLLAGGPSSGAPPPSK-NH2 [Peptide 20]”, in data set [7], the “Peak percent of injected 125I-IRA taken up per gram brain tissue (%Inj/g)” value (shortened to “Peak percent … per gram brain tissue (%Inj/g)”) is on record as 0.05%. Further, in data set [5], the “Serum radioactivity, Without Unlabeled IRA” value amounted to 217.3 ± 7.176 cpm/μL and the “Whole Brain brain/serum ratio, Without Unlabeled IRA” value amounted to 9.51 ± 0.421 µL/g. In addition, the “Half-Time Serum Clearance t1/2” value in data set [1] is listed as 43 min. Moreover, in data set [2], the “125I-IRA remaining intact, Serum, 10 min” value came to 100.16 ± 0.120%; the “125I-IRA remaining intact, Serum, 60 min” value is on record as 93.80 ± 1.850^a %; the “125I-IRA remaining intact, Whole Brain, 10 min” value was determined as 99.4 ± 2.070%. In data set [3], the “Capillary Depletion: %Parenchyma (percent of IRA reaching the brain found in parenchyma vs capillaries)” value was 43.6%, the “Capillary Depletion: Capillary (capillary/serum ratio)” value was found to be 0.796 ± 0.252 µL/g, the “Capillary Depletion: Parenchyma (parenchyma/serum ratio)” value was found to be 0.615 ± 0.807 µL/g and the “Percent of IRA reaching the brain trapped in the capillaries” value turned out to be 56.4%. In data set [4], the “Initial Volume” value was 0.4075 ± 0.2728 µL/g. In data set [6], the “Lipid Solubility Partition Coefficient” value came to 0.0057 ± 0.0008 and the “Log Partition Coefficient (Log P)” value is −2.249 ± 0.0671.
With “YXEGTFTSDYSIYLDKQAAXEFVNWLLAGGPSSGAPPPSC-NH2 [Peptide 17]”, the “Peak percent … per gram brain tissue (%Inj/g)” value in data set [7] was found to be 0.15%. In addition, in data set [5], the “Serum radioactivity, Without Unlabeled IRA” value is 81.33 ± 6.720 cpm/μL and the “Whole Brain brain/serum ratio, Without Unlabeled IRA” value came to 11.41 ± 0.528 µL/g. In addition, the “Half-Time Serum Clearance t1/2” value in data set [1] came to 39.61 min. For the same substance, in data set [2], the “125I-IRA remaining intact, Serum, 10 min” value stood at 95.77 ± 0.350%; the “125I-IRA remaining intact, Serum, 60 min” value is given as 81.20 ± 1.960^a %; the “125I-IRA remaining intact, Whole Brain, 10 min” value worked out at 78.98 ± 3.930%; the “125I-IRA remaining intact, Whole Brain, 60 min” value is 52.91 ± 5.030^a %. Also, in data set [3], the “Capillary Depletion: %Parenchyma (percent of IRA reaching the brain found in parenchyma vs capillaries)” value was found to be 73.2%, the “Capillary Depletion: Capillary (capillary/serum ratio)” value came to 0.543 ± 0.178 µL/g and the “Capillary Depletion: Parenchyma (parenchyma/serum ratio)” value was 1.482 ± 0.462 µL/g. Further, in data set [4], the “Initial Volume” value is 1.057 ± 0.1876 µL/g and the “Blood to Brain Influx Ki” value was found to be 0.3489 ± 0.0228 µL/g/min. In data set [6], the “Lipid Solubility Partition Coefficient” value is recorded as 0.0052 ± 0.0049 and the “Log Partition Coefficient (Log P)” value is −2.564 ± 0.5921.
As for “YXEGTFTSDYSIYLDKQAAXEFVNWLLAGGPSSGAPPPSK-NH2 [DA3-CH]”, in data set [7], the “Peak percent … per gram brain tissue (%Inj/g)” value is reported as 0.08%. In addition, in data set [5], the “Serum radioactivity, Without Unlabeled IRA” value amounted to 65.07 ± 6.275 cpm/μL and the “Whole Brain brain/serum ratio, Without Unlabeled IRA” value came out at 20.86 ± 1.943 µL/g. The “Half-Time Serum Clearance t1/2” value in data set [1] is on record as 42.57 min. In addition, in data set [2], the “125I-IRA remaining intact, Serum, 10 min” value turned out to be 93.26 ± 1.110%; the “125I-IRA remaining intact, Serum, 60 min” value is reported as 73.65 ± 3.138^a %; the “125I-IRA remaining intact, Whole Brain, 10 min” value came out at 71.59 ± 12.14%; the “125I-IRA remaining intact, Whole Brain, 60 min” value is 26.71 ± 17.23^a %. Further, in data set [2], the “Degradation (loss of precipitable 125I-IRA) in serum from 10 to 60 min” value is given as 19.6% and the “Degradation (loss of precipitable 125I-IRA) in whole brain from 10 to 60 min” value is reported as 44.9%. Also, in data set [3], the “Capillary Depletion: %Parenchyma (percent of IRA reaching the brain found in parenchyma vs capillaries)” value stood at 86.02%, the “Capillary Depletion: Capillary (capillary/serum ratio)” value came to 0.637 ± 0.073 µL/g and the “Capillary Depletion: Parenchyma (parenchyma/serum ratio)” value came to 3.918 ± 0.993 µL/g. Also, in data set [4], the “Initial Volume” value was determined as 2.186 ± 0.5638 µL/g and the “Blood to Brain Influx Ki” value came to 0.3922 ± 0.0668 µL/g/min. Further, in data set [6], the “Lipid Solubility Partition Coefficient” value stood at 0.0048 ± 0.0015 and the “Log Partition Coefficient (Log P)” value was −2.325 ± 0.1318.
As to “YXEGTFTSDYSIYLDKQAAXEFVNWLLAGGPSSGAPPPSK-NH2 [Peptide 18]”, the “Whole Brain brain/serum ratio, Without Unlabeled IRA” value in data set [5] amounted to 7.18 ± 0.202 µL/g. In addition, the “Half-Time Serum Clearance t1/2” value in data set [1] is 32.37 min. For the same substance, in data set [2], the “125I-IRA remaining intact, Serum, 10 min” value was 99.85 ± 0.020%; the “125I-IRA remaining intact, Serum, 60 min” value was determined as 90.78 ± 4.440%; the “125I-IRA remaining intact, Whole Brain, 10 min” value amounted to 107.8 ± 3.37%. In data set [3], the “Capillary Depletion: Capillary (capillary/serum ratio)” value came out at 0.764 ± 0.092 µL/g and the “Capillary Depletion: Parenchyma (parenchyma/serum ratio)” value is -0.306 ± 0.219 µL/g. Besides, in data set [4], the “Initial Volume” value was 0.2034 ± 0.1134 µL/g and the “Blood to Brain Influx Ki” value was “ns”. Moreover, in data set [6], the “Lipid Solubility Partition Coefficient” value is 0.2493 ± 0.0239 and the “Log Partition Coefficient (Log P)” value is listed as −0.604 ± 0.0418.
In the case of “YXEGTFTSDYSIYLDKQAAXEFVNWLLAGGPSSGAPPPSKKKKKK-NH2 [DA-JC4]”, the “Peak percent … per gram brain tissue (%Inj/g)” value in data set [7] was found to be 0.17%. In data set [5], the “Serum radioactivity, Without Unlabeled IRA” value is recorded as 29.32 ± 2.014 cpm/μL and the “Whole Brain brain/serum ratio, Without Unlabeled IRA” value is 15.10 ± 1.243 µL/g. The “Half-Time Serum Clearance t1/2” value in data set [1] is recorded as 151.94 min. Moreover, in data set [2], the “125I-IRA remaining intact, Serum, 10 min” value worked out at 85.66 ± 1.866%; the “125I-IRA remaining intact, Serum, 60 min” value is listed as 63.32 ± 1.987^a %; the “125I-IRA remaining intact, Whole Brain, 10 min” value was determined as 69.63 ± 16.36%; the “125I-IRA remaining intact, Whole Brain, 60 min” value was determined as 47.99 ± 18.71%. In data set [3], the “Capillary Depletion: %Parenchyma (percent of IRA reaching the brain found in parenchyma vs capillaries)” value is 89.7%, the “Capillary Depletion: Capillary (capillary/serum ratio)” value was found to be 1.129 ± 0.597 µL/g and the “Capillary Depletion: Parenchyma (parenchyma/serum ratio)” value was found to be 9.855 ± 2.751 µL/g. For the same substance, in data set [4], the “Initial Volume” value was determined as 2.495 ± 0.8554 µL/g and the “Blood to Brain Influx Ki” value came out at 0.6680 ± 0.1089 µL/g/min. In data set [6], the “Lipid Solubility Partition Coefficient” value worked out at 0.0030 ± 0.0008 and the “Log Partition Coefficient (Log P)” value is −2.520 ± 0.1184.
In the case of “leptin: hormone crossing the BBB, literature comparison”, the “Percentage of injected dose entering the brain (%Inj/g)” value in data set [8] was 0.171%.
